In patent US20090239841A1, “Diaryl Ureas as CB1 Antagonists” (priority 2004, published 2009):

The compounds below were run against T1, hCB1 (Homo sapiens, UniProt P21554) (assay: Agonist-induced GTP binding (GTPγ35S) assay at CB1, Example 8). Settings: IC50 at CB1, determined as described in Example 8; read-out: IC50.
T1 construct: made in house; host or cells: Sf9 insect cells (baculovirus), P2 membranes
Format: biochemical
Excerpt: As noted above, compounds provided herein are CB1 antagonists. Certain such compounds are non-competitive CB1 antagonists. In addition, or alternatively, certain compounds provided herein display CB1 specificity. CB1 antagonist activity may be confirmed using an agonist-induced GTP binding assay, such as the assay described in Example 8. Such assays employ a CB1-containing cell membrane preparation (e.g., a preparation of membranes of insect cells that recombinantly express CB1) to determine the effect of a test compound on CB1 agonist-induced GTP binding to CB1. Briefly, a first cell membrane preparation comprising CB1 is contacted with: (i) labeled GTP; (ii) a CB1 agonist; and (iii) a test compound to yield a test membrane preparation. Simultaneously, or in either order, a second cell membrane preparation comprising CB1 is contacted with: (i) labeled GTP; and (ii) a CB1 agonist to yield a control membrane preparation. The labeled GTP is preferably GTPγ^35S; a representative CB1 agonist is CP55,940. Such contact is performed under conditions that are suitable for GTP binding to CB1, such as the conditions described in Example 8. The concentrations of labeled GTP and CB1 agonist used are generally concentrations that are sufficient to result in a detectable increase in the amount of labeled GTP bound to the membrane preparation in the presence of CB1 agonist. Such concentrations may be determined by routine experimentation; representative suitable concentrations are provided in Example 8. Generally, a range of test compound concentrations is used (e.g., ranging from 10^−10M to 10^−5M).
After sufficient contact (e.g., incubation) to allow GTP binding to the membrane preparations, a signal that corresponds to (represents) the amount of bound, labeled GTP is detected (typically, unbound labeled GTP is first removed via a washing step). In other words, simultaneously or in either order: (i) a test signal that represents an amount of bound, labeled GTP in the test membrane preparation is detected; and (ii) a control signal that represents an amount of bound, labeled GTP in the control membrane preparation is detected. The nature of the signal detected is determined by the type of label used. For example, if the GTP is radioactively labeled, the signal detected is radioactive decay (e.g., via liquid scintillation spectrometry). The CB1 antagonist activity of the test compound is then determined by comparing the test signal with the control signal.
This assay can also be used to detect partial agonism mediated by antagonist compounds. A compound being analyzed in this assay is referred to herein as a “test compound.” Agonist-stimulated GTP binding activity is measured as follows: Four independent baculoviral stocks (one directing the expression of hCB1 and three directing the expression of each of the three subunits of a heterotrimeric G-protein) are used to infect a culture of Sf9 cells as described in Example 5.
Agonist-stimulated GTP binding on purified membranes (as described in Example 6) is initially assessed using the cannabinoid agonist CP55,940 to ascertain that the receptor/G-protein-alpha-beta-gamma combination(s) yield a functional response as measured by GTP binding.
P2 membranes are resuspended by Dounce homogenization (tight pestle) in GTP binding assay buffer (50 mM Tris pH 7.4, 120 mM NaCl, 5 mM MgCl2, 2 mM EGTA, 0.1% BSA, 0.1 mM bacitracin, 10 KIU/mL aprotinin, 5 μM GDP) and added to reaction tubes at a concentration of 10 μg protein/reaction tube. After adding increasing doses of the agonist CP55,940 at concentrations ranging from 10^−12 M to 10^−6 M, reactions are initiated by the addition of […] GTPγ^35S. In competition experiments, non-radiolabeled test compounds are added to separate assays at concentrations ranging from 10^−10 M to 10^−5 M along with 1 nM CP55,940 to yield a final volume of 0.25 mL. […]

T1 sequence (P21554 whole entry): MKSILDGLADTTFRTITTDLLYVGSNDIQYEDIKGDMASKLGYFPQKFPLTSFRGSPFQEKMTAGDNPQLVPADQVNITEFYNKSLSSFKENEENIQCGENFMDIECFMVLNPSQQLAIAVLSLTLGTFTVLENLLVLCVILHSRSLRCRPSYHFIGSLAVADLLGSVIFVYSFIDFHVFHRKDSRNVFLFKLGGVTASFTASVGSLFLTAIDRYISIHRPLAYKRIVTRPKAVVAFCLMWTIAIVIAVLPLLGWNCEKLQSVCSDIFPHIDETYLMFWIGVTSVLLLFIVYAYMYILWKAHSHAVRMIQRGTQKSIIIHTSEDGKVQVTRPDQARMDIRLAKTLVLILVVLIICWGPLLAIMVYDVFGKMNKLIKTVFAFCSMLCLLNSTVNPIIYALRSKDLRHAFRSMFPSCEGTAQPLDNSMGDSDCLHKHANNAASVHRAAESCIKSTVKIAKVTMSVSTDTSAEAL

IC50, < 2000 nM:
CCOC(=O)c1cccc(NC(=O)Nc2cccc(OC(F)F)c2)c1 [Compound 782, ethyl 3-[({[3-(difluoromethoxy)phenyl]amino}carbonyl)amino] benzoate]
COc1ccc(NC(=O)Nc2ccc(C(=O)OC(C)C)cc2)cc1 [Compound 598, isopropyl 4-({[(4-methoxyphenyl)amino]carbonyl}amino)benzoate]
CC(C)Oc1ccc(NC(=O)Nc2cccc(C#N)c2)cc1 [Compound 422, 1-(3-cyanophenyl)-3-(4-isopropoxyphenyl)urea]
CC(C)c1ccccc1NC(=O)Nc1cccc(OC(F)F)c1 [Compound 576, 1-[3-(difluoromethoxy)phenyl]-3-(2-isopropylphenyl)urea]
CCOC(=O)c1cccc(NC(=O)Nc2ccc(OCC#N)cc2)c1 [Compound 718, ethyl 3-[({[4-(cyanomethoxy)phenyl]amino}carbonyl)amino]benzoate]
COC(=O)c1cccc(NC(=O)Nc2ccc(C)c(Cl)c2)c1 [Compound 769, methyl 3-({[(3-chloro-4-methylphenyl)amino]carbonyl}amino)benzoate]
CC(C)Oc1ccc(NC(=O)Nc2ccc([N+](=O)[O-])cc2)cc1 [Compound 564, 1-(4-isopropoxyphenyl)-3-(4-nitrophenyl)urea]
CCc1ccc(NC(=O)Nc2ccc(C#N)cn2)cc1 [Compound 636, 1-(5-cyanopyridin-2-yl)-3-(4-ethylphenyl)urea]
CC(=O)c1ccc(NC(=O)Nc2ccc(F)cc2)cc1 [Compound 340, 1-(4-acetylphenyl)-3-(4-fluorophenyl)urea]
CCOc1ccc(NC(=O)Nc2ccc(CC)cc2)cc1 [Compound 388, 1-(4-ethoxyphenyl)-3-(4-ethylphenyl)urea]
Cc1ccc(NC(=O)Nc2ccc(OC(F)(F)F)cc2)cc1F [Compound 607, 1-(3-fluoro-4-methylphenyl)-3-[4-(trifluoromethoxy)phenyl]urea]
CC(=O)c1cccc(NC(=O)Nc2ccc(C)c(Cl)c2)c1 [Compound 458, 1-(3-acetylphenyl)-3-(3-chloro-4-methylphenyl)urea]
Cc1ccc(NC(=O)Nc2ccc(F)cc2)cc1C [Compound 428, 1-(3,4-dimethylphenyl)-3-(4-fluorophenyl)urea]
CCCOc1ccc(NC(=O)Nc2cccc(C)c2)cc1 [Compound 304, 1-(3-methylphenyl)-3-(4-propoxyphenyl)urea]
CCc1cccc(NC(=O)Nc2ccc(COC)cc2)c1 [Compound 392, 1-(3-ethylphenyl)-3-[4-(methoxymethyl)phenyl]urea]
CCc1ccc(NC(=O)Nc2ccc(F)cc2)cc1 [Compound 325, 1-(4-ethylphenyl)-3-(4-fluorophenyl)urea]
Cc1cccc(NC(=O)Nc2cccc(OC(C)C)c2)c1 [Compound 297, 1-(3-isopropoxyphenyl)-3-(3-methylphenyl)urea]
Cc1cccc(NC(=O)Nc2ccc(OC(F)F)cc2)c1 [Compound 307, N-[4-(difluoromethoxy)phenyl]-N′-(3-methylphenyl)urea]
COCc1ccc(NC(=O)Nc2ccc(Cl)cc2)cc1 [Compound 395, 1-(4-chlorophenyl)-3-[4-(methoxymethyl)phenyl]urea]
O=C(Nc1ccccc1)Nc1ccc(OC(F)F)cc1 [Compound 306, N-[4-(difluoromethoxy)phenyl]-N′-phenylurea]
COc1ccc(NC(=O)Nc2ccc(OC(C)C)cc2)cc1 [Compound 552, 1-(4-isopropoxyphenyl)-3-(4-methoxyphenyl)urea]
Cc1ccc(NC(=O)Nc2cccc(OCCO)c2)cc1F [Compound 762, 1-(3-fluoro-4-methylphenyl)-3-[3-(2-hydroxyethoxy)phenyl]urea]
CCC(=O)c1ccc(NC(=O)Nc2cc(F)cc(F)c2)cc1 [Compound 744, 1-(3,5-difluorophenyl)-3-(4-propionylphenyl)urea]

Same assay, conditions: Table I; IC50 at CB1, GTP binding with 1 nM CP55,940; read-out: IC50

IC50, < 2000 nM:
CCCOc1ccc(NC(=O)Nc2ccc(C)cc2)cc1 [Compound 40, N-(4-methylphenyl)-N′-(4-propoxyphenyl)urea]
O=C(Nc1ccc(OC(F)F)cc1)Nc1cccc(Cl)c1 [Compound 15, N-(3-chlorophenyl)-N′-[4-(difluoromethoxy)phenyl]urea]

Same assay, conditions: Table II; IC50 at CB1, GTP binding with 1 nM CP55,940; read-out: IC50

IC50, < 2000 nM:
CC(=O)c1ccc(NC(=O)Nc2ccc(F)cc2)cc1 [Compound 189, N-(4-acetylphenyl)-N′-(4-fluorophenyl)urea]
CCC(CC)Oc1ccc(-c2cccc(NC(=O)Nc3ccc(OC(F)F)cc3)c2)nc1NC [Compound 122, N-[4-(difluoromethoxy)phenyl]-N′-{3-[5-(1-ethylpropoxy)-6-(methylamino)pyridin-2-yl]phenyl}urea]
COCc1ccc(NC(=O)Nc2ccc(C)cc2)cc1 [Compound 207, N-[4-(methoxymethyl)phenyl]-N′-(4-methylphenyl)urea]
O=C(Nc1ccc(OC(F)F)cc1)Nc1cccnc1Cl [Compound 149, N-(2-chloropyridin-3-yl)-N′-[4-(difluoromethoxy)phenyl]urea]
COc1ccc(-c2cccc(NC(=O)Nc3ccc(OC(F)F)cc3)c2)cn1 [Compound 72]
COc1cc(NC(=O)Nc2ccc(C)cc2)ccc1OC(F)F [Compound 61, N-[4-(difluoromethoxy)-3-methoxyphenyl]-N′-(4-methylphenyl)urea]
COCc1ccc(NC(=O)Nc2cccc(F)c2)cc1 [Compound 208, N-(3-fluorophenyl)-N′-[4-(methoxymethyl)phenyl]urea]
Cc1ccc(NC(=O)Nc2cccc(OC(F)F)c2)cc1 [Compound 218, N-[3-(difluoromethoxy)phenyl]-N′-(4-methylphenyl)urea]
CC(=O)c1ccc(NC(=O)Nc2cccc(Br)c2)cc1 [Compound 201, N-(4-acetylpheny-)-N′-(3-bromophenyl)urea]
O=C(Nc1ccc(OC(F)F)cc1)Nc1cccc(-c2ccc(C(F)(F)F)cn2)c1 [Compound 66, N-[4-(difluoromethoxy)phenyl]-N′-{3-[5-(trifluoromethyl)pyridin-2-yl]phenyl}urea]
O=C(Nc1ccc(OC(F)F)cc1)Nc1ccc(N2CCCCC2)cc1 [Compound 105, N-[4-(difluoromethoxy)phenyl]-N′-(4-piperidin-1-ylphenyl)urea]
CC(C)Oc1cccc(NC(=O)Nc2cccc(C#N)c2)c1 [Compound 276, N-(3-cyanophenyl)-N′-(3-isopropoxyphenyl)urea]
O=C(Nc1ccc(OC(F)F)cc1)Nc1cnc2ccccc2c1 [Compound 126, N-[4-(difluoromethoxy)phenyl]-N′-quinolin-3-ylurea]
Cc1ccccc1NC(=O)Nc1cccc(OC(F)F)c1 [Compound 226]
CCCOc1ccc(NC(=O)Nc2ccc(Cl)cc2)cc1 [Compound 245, N-(4-chlorophenyl)-N′-(4-propoxyphenyl)urea]
Cc1cc(NC(=O)Nc2ccc(OC(F)F)cc2)nc(C)n1 [Compound 78, N-[4-(difluoromethoxy)phenyl]-N′-(2,6-dimethylpyrimidin-4-yl)urea]
